Species on record: Rattus norvegicus
Assay: Open TG-GATES - Regimen: Single
Assay type: toxicity, organism-based, Sprague-Dawley
Set-up: regimen Single, gender Male, age 6 weeks
Conditions: in vivo, po, route gavage; for KIDNEY_L / KIDNEY_R / KIDNEY_TOTAL: tissue Kidney
[1] = 0 mg/kg, 9 h, dose level Control
[2] = 0 mg/kg, 9 h, tissue Blood, dose level Control
[3] = 0 mg/kg, 9 h, tissue Plasma, dose level Control
[4] = 0 mg/kg, 24 h, dose level Control
[5] = 0 mg/kg, 24 h, tissue Blood, dose level Control
[6] = 0 mg/kg, 24 h, tissue Plasma, dose level Control

SMILES: Oc1ncnc2[nH]ncc12 [ALLOPURINOL]
- gamma-GTP (0 mg/kg, 6 h, tissue Plasma, dose level Control): 0.8 IU/L
- TERMINAL_BW [1]: 204.6 g
- APTT [2]: 16.6 s
- Bas [2]: 0%
- Eos [2]: 1%
- Fbg [2]: 221.2 mg/dL
- Hb [2]: 13.8 g/dL
- Ht [2]: 41.1%
- Lym [2]: 71.4%
- MCH [2]: 21.8 pg
- MCHC [2]: 33.7%
- MCV [2]: 64.8 fL
- Mono [2]: 9.6%
- Neu [2]: 18%
- PT [2]: 12.3 s
- RBC [2]: 633.4 x10_4/ul
- Ret [2]: 7.5%
- WBC [2]: 81.8 x10_2/uL
- KIDNEY_L [1]: 0.9 g
- KIDNEY_R [1]: 0.9 g
- KIDNEY_TOTAL [1]: 1.9 g
- LIVER (0 mg/kg, 9 h, tissue Liver, dose level Control): 9 g
- ALP [3]: 761 IU/L
- ALT [3]: 28.6 IU/L
- AST [3]: 61.2 IU/L
- BUN [3]: 12.4 mg/dL
- CRE [3]: 0.4 mg/dL
- DBIL [3]: 0.018 mg/dL
- GLC [3]: 197.8 mg/dL
- IP [3]: 11.2 mg/dL
- K [3]: 4.7 meq/L
- Na [3]: 139.2 meq/L
- PL [3]: 136.4 mg/dL
- RALB [3]: 3.8 g/dL
- TBIL [3]: 0.4 mg/dL
- TC [3]: 73 mg/dL
- TG [3]: 48 mg/dL
- TP [3]: 5.7 g/dL
- gamma-GTP [3]: 1.2 IU/L
- TERMINAL_BW [4]: 223.3 g
- APTT [5]: 16.3 s
- Bas [5]: 0.2%
- Eos [5]: 0.8%
- Fbg [5]: 219 mg/dL
- Hb [5]: 13.4 g/dL
- Ht [5]: 39.8%
- Lym [5]: 72%
- MCH [5]: 21.8 pg
- MCHC [5]: 33.6%
- MCV [5]: 65 fL
- Mono [5]: 12.4%
- Neu [5]: 14.8%
- PT [5]: 12 s
- Plat [5]: 110.8 x10_4/uL
- RBC [5]: 613.4 x10_4/ul
- Ret [5]: 8.1%
- WBC [5]: 97 x10_2/uL
- KIDNEY_L [4]: 1 g
- KIDNEY_R [4]: 1 g
- KIDNEY_TOTAL [4]: 2 g
- ALP [6]: 987.2 IU/L
- ALT [6]: 31.2 IU/L
- AST [6]: 63.4 IU/L
- BUN [6]: 18 mg/dL
- CRE [6]: 0.5 mg/dL
- DBIL [6]: 0.02 mg/dL
- GLC [6]: 193.2 mg/dL
- IP [6]: 8.4 mg/dL
- K [6]: 5.1 meq/L
- LDH [6]: 94 IU/L
- Na [6]: 138 meq/L
- PL [6]: 153.4 mg/dL
- RALB [6]: 3.8 g/dL
- TBIL [6]: 0.3 mg/dL
- TC [6]: 81.6 mg/dL
- TG [6]: 99 mg/dL
- TP [6]: 5.7 g/dL
- gamma-GTP [6]: 1.2 IU/L
- TERMINAL_BW (15 mg/kg, 3 h, dose level Low): 213.7 g

From ChEMBL document CHEMBL3885861, “Open TG-GATES”
